# Legend:
# SH-SY5Y cells = assay: Oxygen-glucose deprivation (OGD) of SH-SY5Y cells, viability by WST-1 assay; type: cell-based, human; details: for fold change in viability compared to control cells: 24 hours of recovery after 8 hour OGD, mean±SEM
# Method: SH-SY5Y cells were harvested from 100 mm diameter culture plates once 70-80% confluence was reached, and were then seeded on 96-well plates at a density of 3.0×10^4 cells per well in normal growth media. The cells were then incubated overnight (approximately 16 hours) under normal growth conditions to allow for attachment to plates. During this time, DMEM (supplemented with 25 mM HEPES, 4 mM L-glutamine, and 584 mg/L […]) with no glucose or serum to be used for OGD was incubated on a culture plate in the 3% oxygen, 5% carbon dioxide, 37° C. incubator to reduce the oxygen levels within the media. In the following morning, this plate of media was placed inside of a custom-built anoxic chamber that was continuously pumped with 95% nitrogen-5% carbon dioxide gas mixture from Praxair Canada (St. Catharines, ON, Canada) to further reduce/eliminate the amount of oxygen present in the media. 0.2% oxygen level within the chamber was reached within approximately 10 minutes, and the plate of media was incubated for 30 minutes under these conditions. After this period, the growth media on the 96-well plates of SH-SY5Y cells was removed, and carefully replaced with the de-oxygenated DMEM containing no glucose or serum. The plates of cells were then incubated in the anoxia chamber at 0.2% oxygen for 8 hours, continuously pumped with the 95% nitrogen-5% carbon dioxide gas mixture. An oxygen sensor was kept inside of the chamber, and the 0.2% oxygen level was monitored and maintained by a Roxy-1 universal regulator/controller (Sable Systems Int., Las Vegas, Nev., USA). Throughout the duration of the media de-oxygenation and OGD, the anoxic chamber was kept inside of a 37° C. […]
# After the 8 hour period of OGD, the glucose/serum-free DMEM was carefully removed from the wells, and replaced with normal growth media containing TPP-IOA. The cells were incubated at their normal growth conditions, and viability was assessed after 24 and 48 hours of recovery with the use of the WST-1 cell proliferation assay.
# For measurements, premixed WST-1 cell proliferation reagent was added to the wells of cells (ratio of 1:10 with growth media) cultured on 96-well flat bottomed plates. […] The plate was then shaken thoroughly for 1 minute on a plate shaker, and then absorbance at 450 nm, with a reference wavelength of 650 nm, was measured using a microplate reader (BioTek, Winooski, Vt., USA).
# For data analysis, the background control and reference wavelength absorbance readings were subtracted from the 450 nm reading for each sample. The average absorbance reading for the 0 μM TPP-IOA treatment was then set equal to 1, and all sample readings were divided by the mean absorbance of the 0 μM TPP-IOA treatment to obtain a measure of fold change in viability compared to the control.
# [1] = Compartmentalization of TPP-IOA in mouse embryonic cells and subcellular fractions (HPLC, ESI-MS); type: in vitro ADME
# Method: Mitochondrial fractions were isolated by differential centrifugation. Briefly, cells were suspended in mitochondria isolation buffer (pH 7.4; MIB) containing mannitol (210 mM), sucrose (70 mM), HEPES (10 mM), EDTA (1 mM) and protease inhibitor cocktail. Cells were lysed by Dounce homogenization. Unbroken cells, nuclei and debris were removed by 5 min centrifugation at 600×g at 4° C. Mitochondria, obtained by centrifugation at 10,000×g (10 min), were washed once with MIB.
# Mouse embryonic cells (2×10^6) were seeded in 100 mm cell culture dishes and let attached overnight. Thereafter, the cells were incubated with TPP-IOA (10 μM) in PBS at 37° C. for 30 min, washed with PBS (2×5 mL), and collected by trypsinization. Mitochondria were isolated as described above. In mitochondria, TPP-IOA was analyzed by HPLC after precipitation of proteins with CH3CN (final concentration, 70%; incubation time, 15 min at 4° C.; centrifugation, 5 min at 10,000×g). TPP-IOA from cytosolic fractions was extracted by following the protocol of Folch et al.^37 and then re-dissolved in a minimal volume of methanol. […] Detection of TPP-IOA was performed with a SPD-M10A photodiode array detector (Shimadzu, Kyoto, Japan) following the specific UV spectrum of the triphenylphosphonium function (λmax=224, 264 and 274 nm; FIG. 4A, Inset). TPP-IOA was eluted as single peak with retention time of 4 min.
compound,measurement,setting,value
CCCCCCC(C/C=C\CCCCCCCC(=O)OCCC[P+](c1ccccc1)(c1ccccc1)c1ccccc1)n1ccnc1.[Br-] (stereo not drawn) [TPP-IOA],fold change in viability compared to control cells,"SH-SY5Y cells; 2.5 μM, p=0.017",1.192±0.058 fold
same,fold change in viability compared to control cells,"SH-SY5Y cells; 5 μM, p=0.0094",1.356±0.074 fold
same,fold change in viability compared to control cells,"SH-SY5Y cells; 10 μM, non-significant p=0.0955",1.179±0.038 fold
same,viability after 48 hours of incubation,SH-SY5Y cells; 48 hours of recovery after 8 hour OGD,no significant improvements in viability
same,concentration of TPP-IOA in mitochondria,[1]; assuming mitochondria are ~15-25% of cell volume,~5000 µM
same,subcellular distribution of TPP-IOA,"[1]; mouse embryonic cells, 10 μM, 30 min",most of the TPP-IOA was present in mitochondria

# — US9365597B2, “Mitochondria-targeted inhibitors of cytochrome c peroxidase for protection from apoptosis” (Brock University, priority 2011, dated 2016)
